Measured values reported in patent US11518754B2, “Radiolabeled pharmaceuticals and methods of making and using same” (YALE UNIVERSITY, priority 2017, dated 2022).
Read-outs that look alike come from different tables or passages of the source.

Columns and labels:
[1] = target: SV2A (Macaca mulatta, UniProt H9EQH8); test: PET imaging studies in rhesus monkeys; conditions: for blocking of radiotracer specific binding to SV2A: levetiracetam 30 mg/kg i.v. or UCB-J 150 μg/kg i.v. before radiotracer injection; for Binding potential (BPND): from VT, centrum semiovale as reference region; for Displacement of radiotracer binding by levetiracetam: levetiracetam 30 mg/kg i.v. infused 60 or 90 min post injection of the radiotracer; for time to SUV peak in gray matter regions: rhesus monkey, in vivo, iv
Chain of SV2A (Macaca mulatta, UniProt H9EQH8) (H9EQH8 1-742): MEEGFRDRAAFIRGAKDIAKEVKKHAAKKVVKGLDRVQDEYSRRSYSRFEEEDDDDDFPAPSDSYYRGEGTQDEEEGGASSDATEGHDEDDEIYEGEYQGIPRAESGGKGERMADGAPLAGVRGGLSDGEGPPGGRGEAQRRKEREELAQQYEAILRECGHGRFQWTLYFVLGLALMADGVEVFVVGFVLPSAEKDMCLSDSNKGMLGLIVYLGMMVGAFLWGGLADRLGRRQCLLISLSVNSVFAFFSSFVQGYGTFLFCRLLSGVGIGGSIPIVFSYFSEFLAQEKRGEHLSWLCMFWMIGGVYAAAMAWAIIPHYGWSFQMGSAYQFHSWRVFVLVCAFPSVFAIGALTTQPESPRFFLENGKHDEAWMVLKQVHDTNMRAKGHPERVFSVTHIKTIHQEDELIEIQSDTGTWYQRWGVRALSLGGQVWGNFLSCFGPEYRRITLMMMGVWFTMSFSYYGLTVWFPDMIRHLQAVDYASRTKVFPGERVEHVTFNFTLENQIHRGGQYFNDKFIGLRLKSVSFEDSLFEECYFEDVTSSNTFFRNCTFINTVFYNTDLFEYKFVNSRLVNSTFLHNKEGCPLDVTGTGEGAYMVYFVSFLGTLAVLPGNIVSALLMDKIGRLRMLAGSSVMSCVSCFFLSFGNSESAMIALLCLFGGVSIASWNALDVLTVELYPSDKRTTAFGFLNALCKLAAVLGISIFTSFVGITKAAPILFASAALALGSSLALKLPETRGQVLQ
Description: Experiments were performed in rhesus monkeys (Macaca mulatta). Rhesus monkeys were sedated using intramuscular (i.m.) injection of ketamine and glycopyrrolate approximately 2 hours before the PET scan and anesthesia was maintained with isoflurane (1.5%-2.5%) for the duration of the experiments. Baseline PET scans were obtained after intravenous (i.v.) injection of ^11C-3, ^18F-3, ^18F-4, ^18F-5, ^18F-10, ^18F-11, or ^18F-12.
Arterial blood samples were collected during the PET scans to calculate the plasma input function and to determine the unmetabolized parent fraction using the automatic column-switching HPLC system. Plasma free fraction (fp) was measured in triplicate using the ultrafiltration method.
PET scans of the brain were acquired using the FOCUS 220 PET scanner (Siemens Preclinical Solutions) with a reconstructed image resolution of approximately 1.5 mm. After a transmission scan, the radioligand was injected i.v. as a 3 min slow bolus by an infusion pump (PHD 22/2000; Harvard Apparatus). List-mode data were acquired for 120-180 min and binned into sinograms with an applicable number of frames. Scan data were reconstructed with a Fourier rebinning/filtered backprojection algorithm with corrections for attenuation, scanner normalization, radiation scatter, and randoms. Regions of interest were manually delineated on a single representative anatomic rhesus monkey MR image registered to a template image. The regions used in this study were amygdala, brain stem, caudate, centrum semiovale, cerebellum, cingulate cortex, frontal cortex, globus pallidus, insular cortex, nucleus accumbens, occipital cortex, pons, putamen, temporal cortex, and thalamus. Registration parameters were obtained to apply the regions of interest to individual PET scans, and regional time-activity curves were generated. Regional time-activity curves of the brain were analyzed with the 1-tissue-(1T) compartment model. Fit quality was compared with the 2-tissue model and the multilinear analysis method to calculate VT.
Typical injected radioactivity amount was 0.5-5 mCi per injection, with typical injected mass amount of 1-10 μg.
Specific binding to SV2A was further examined for ^11C-3, ^18F-3, and ^18F-11 in blocking studies, where levetiracetam or UCB-J ((R)-3) was i.v. infused before injection of the radiotracers.

[2] = target: SV2A (Rattus norvegicus (Rat), UniProt Q02563)
Chain of SV2A (Rattus norvegicus (Rat), UniProt Q02563) (Q02563 whole entry): as the sequence (H9EQH8 1-742) above, with D53E, S62A, S64G, T71A, E144D, A154T, G440S, S482A, M634L counted along it
Description: One Sprague Dawley rat was euthanized with carbon dioxide inhalation. The brain was harvested, rapidly frozen on dry ice and then stored at −80° C. The whole brain homogenates were obtained following published procedures. The final homogenate was suspended in 20 mM Tris-HCl buffer (pH 7.4) containing 250 mM of sucrose at a wet tissue concentration of 100 mg/mL and stored at −80° C. until use.
For competition binding experiments, 0.5 mg of the rat brain homogenates in 800 μL of binding buffer (2 mM MgCl2 in 50 mM Tris*HCl, pH=7.4) were incubated on a thermoshaker at 37° C. for 30 min with 100 μL (R)-^11C-3 or (R)-^18F-11 and 100 μL of the compound over a range of concentrations (from 0.1 to 100 nM). Nonspecific binding was defined as the residual binding observed in the presence of 1 mM levetiracetam (100 μL). At completion of the incubation period, the membrane-bound radioligand was recovered using rapid filtration through GF/B glass fiber filters (13 mm GD/X, Whatman Inc.) which were pre-soaked for at least 30 min in 0.5% polyethyleneimine (PEI). The membranes were washed twice with 1 mL of ice-cooled binding buffer. The binding mixtures, filters and filtrates were counted using cross-calibrated gamma counters (1480 & 2480 WIZARD; Perkin-Elmer). Values of IC50 were calculated using the [sequence] PRISM™ software and converted to inhibition constants (Ki) by the Cheng-Prusoff equation.

[3] = Plasma free fraction (fp) by ultrafiltration method; assay type: in vitro ADME, rhesus monkeys (Macaca mulatta); conditions: plasma (from arterial blood samples), rhesus monkey plasma
[4] = IC50, rat brain homogenates, radioligand (R)-11C-3 or (R)-18F-11, 37° C., 30 min
[5] = Ki, converted from IC50 by the Cheng-Prusoff equation
[6] = converted from IC50 by the Cheng-Prusoff equation
[7] = rat brain homogenates, radioligand (R)-11C-3 or (R)-18F-11, 37° C., 30 min

Cc1cnccc1CN1CC(c2cc(F)c(F)c(F)c2)CC1=O (single isomer, unassigned) [(R)-3, 1-((3-methylpyridin-4-yl)methyl)-4-(3,4,5-trifluorophenyl) pyrrolidin-2-one]
blocking of radiotracer specific binding to SV2A [1]: blocking of specific binding
IC50 [2, 4]: 1.62 nM
Ki [2, 5]: 0.27 nM

Cc1cnccc1CN1CC(c2ccc(F)c(F)c2)CC1=O (single isomer, unassigned) [(R)-4, 4-(3,4-difluorophenyl)-1-((3-methylpyridin-4-yl)methyl)pyrrolidin-2-one]
IC50 [2]: 12.6 nM
Ki [2]: 2.08 nM

Cc1cnccc1CN1CC(c2cccc(F)c2)CC1=O (single isomer, unassigned) [(R)-11, 4-(3-Fluorophenyl)-1-((3-methylpyridin-4-yl)methyl)pyrrolidin-2-one]
IC50 [2, 4]: 26.9 nM
Ki [2, 5]: 4.44 nM

O=C1C[C@H](c2cccc(F)c2)CN1Cc1ccncc1 (single isomer, unassigned) [(R)-12, 4-(3-Fluorophenyl)-1-(pyridin-4-ylmethyl)pyrrolidin-2-one]
Ki [2, 6]: 4.43 nM
IC50 [2, 7]: 26.8 nM

Cc1cnccc1CN1C[C@H](c2cc(F)c(F)c(F)c2)CC1=O (single isomer, unassigned) [(S)-3, 1-((3-methylpyridin-4-yl)methyl)-4-(3,4,5-trifluorophenyl) pyrrolidin-2-one]
Ki [2, 6]: 12.5 nM
IC50 [2, 7]: 75.6 nM

Cc1cnccc1CN1C[C@H](c2ccc(F)c(F)c2)CC1=O (single isomer, unassigned) [(S)-4, 4-(3,4-difluorophenyl)-1-((3-methylpyridin-4-yl)methyl)pyrrolidin-2-one]
Ki [2, 6]: 9.43 nM
IC50 [2, 7]: 57 nM

Cc1cnccc1CN1C[C@H](c2cc(F)cc(F)c2)CC1=O (single isomer, unassigned) [(S)-5, 4-(3,5-Difluorophenyl)-1-((3-methylpyridin-4-yl)methyl)pyrrolidin-2-one]
Ki [2, 6]: 115 nM
IC50 [2, 7]: 698 nM

Cc1cnccc1CN1CC(c2cccc(F)c2)CC1=O (single isomer, unassigned) [(S)-11, 4-(3-Fluorophenyl)-1-((3-methylpyridin-4-yl)methyl)pyrrolidin-2-one]
IC50 [2, 4]: 109 nM
Ki [2, 5]: 18.2 nM

O=C1CC(c2cccc(F)c2)CN1Cc1ccncc1 (single isomer, unassigned) [(S)-12, 4-(3-Fluorophenyl)-1-(pyridin-4-ylmethyl)pyrrolidin-2-one]
IC50 [2]: 28.2 nM
Ki [2]: 4.66 nM

Cc1cnccc1CN1C[C@@H](c2cc(F)cc(F)c2)CC1=O (single isomer, unassigned) [Compound (R)-5, 4-(3,5-Difluorophenyl)-1-((3-methylpyridin-4-yl)methyl)pyrrolidin-2-one]
Ki [2, 6]: 0.58 nM
IC50 [2, 7]: 3.52 nM

Cc1cnccc1CN1CC(c2cc(F)c(F)c(F)c2)CC1=O (centres unmarked) [^18F-3, 1-((3-methylpyridin-4-yl)methyl)-4-(3,4,5-trifluorophenyl) pyrrolidin-2-one]
Binding potential (BPND) ([1]; Amygdala): 1.65 ± 1.04
Binding potential (BPND) ([1]; Brainstem): 0.84 ± 0.28
Binding potential (BPND) ([1]; Caudate nucleus): 2.54 ± 0.60
Binding potential (BPND) ([1]; Cerebellum): 1.88 ± 0.42
Binding potential (BPND) ([1]; Cingulate cortex): 4.04 ± 0.38
Binding potential (BPND) ([1]; Frontal cortex): 3.90 ± 0.54
Binding potential (BPND) ([1]; Globus pallidus): 1.08 ± 0.59
Binding potential (BPND) ([1]; Hippocampus): 1.99 ± 0.75
Binding potential (BPND) ([1]; Insular cortex): 3.51 ± 0.56
Binding potential (BPND) ([1]; Nucleus accumbens): 3.85 ± 0.57
Binding potential (BPND) ([1]; Occipital cortex): 3.35 ± 0.27
Binding potential (BPND) ([1]; Pons): 0.80 ± 0.26
Binding potential (BPND) ([1]; Putamen): 2.62 ± 0.46
Binding potential (BPND) ([1]; Temporal cortex): 3.14 ± 0.41
Binding potential (BPND) ([1]; Thalamus): 2.53 ± 1.18
Displacement of radiotracer binding by levetiracetam [1]: reduced the binding of these tracers to a significant extent
Uptake of radiotracer in blocking studies ([1]; levetiracetam (30 mg/kg) or UCB-J (150 μg/kg) i.v. 10 min before radiotracer injection): reduced to background levels
time to SUV peak in gray matter regions [1]: slower
fraction unbound [3]: 0.42 ± 0.06

Cc1cnccc1CN1CC(c2ccc(F)c(F)c2)CC1=O (centres unmarked) [^18F-4, 4-(3,4-difluorophenyl)-1-((3-methylpyridin-4-yl)methyl)pyrrolidin-2-one]
Binding potential (BPND) ([1]; Amygdala): 0.66
Binding potential (BPND) ([1]; Brainstem): 0.75
Binding potential (BPND) ([1]; Caudate nucleus): 1.72
Binding potential (BPND) ([1]; Cerebellum): 0.55
Binding potential (BPND) ([1]; Cingulate cortex): 2.60
Binding potential (BPND) ([1]; Frontal cortex): 2.51
Binding potential (BPND) ([1]; Globus pallidus): 0.95
Binding potential (BPND) ([1]; Hippocampus): 1.35
Binding potential (BPND) ([1]; Insular cortex): 2.41
Binding potential (BPND) ([1]; Nucleus accumbens): 2.47
Binding potential (BPND) ([1]; Occipital cortex): 2.30
Binding potential (BPND) ([1]; Pons): 0.73
Binding potential (BPND) ([1]; Putamen): 1.86
Binding potential (BPND) ([1]; Temporal cortex): 2.21
Binding potential (BPND) ([1]; Thalamus): 1.65
Displacement of radiotracer binding by levetiracetam [1]: reduced the binding of these tracers to a significant extent
time to SUV peak in gray matter regions [1]: ≤ 10 min
fraction unbound [3]: 0.41

O=C1CC(c2cccc(F)c2)CN1Cc1ccncc1 (centres unmarked) [^18F-12, 4-(3-Fluorophenyl)-1-(pyridin-4-ylmethyl)pyrrolidin-2-one]
Binding potential (BPND) ([1]; Amygdala): 0.04
Binding potential (BPND) ([1]; Brainstem): −0.06
Binding potential (BPND) ([1]; Caudate nucleus): 0.75
Binding potential (BPND) ([1]; Cerebellum): 0.25
Binding potential (BPND) ([1]; Cingulate cortex): 1.45
Binding potential (BPND) ([1]; Frontal cortex): 1.28
Binding potential (BPND) ([1]; Globus pallidus): 0.29
Binding potential (BPND) ([1]; Hippocampus): 0.44
Binding potential (BPND) ([1]; Insular cortex): 1.09
Binding potential (BPND) ([1]; Nucleus accumbens): 1.18
Binding potential (BPND) ([1]; Occipital cortex): 0.90
Binding potential (BPND) ([1]; Pons): −0.09
Binding potential (BPND) ([1]; Putamen): 0.86
Binding potential (BPND) ([1]; Temporal cortex): 0.95
Binding potential (BPND) ([1]; Thalamus): 0.42
Displacement of radiotracer binding by levetiracetam [1]: reduced the binding of these tracers to a significant extent
time to SUV peak in gray matter regions [1]: ≤ 10 min
fraction unbound [3]: 0.61

CC[C@@H](C(N)=O)N1CCCC1=O [levetiracetam, reference compound]
blocking of radiotracer specific binding to SV2A [1]: blocking of specific binding
